These results are taken from patent US8846571B2, “Herbicidal compositions containing benzoylpyrazole compounds” (priority 2008, dated 2014).

The nature of assay [1]: Foliar treatment pot test (Example 1), plant name misprinted as 'days after treatment'. In kind it is in vivo. The conditions noted are these: 4.0-5.0 leaf stage. From the text:
(§1) When the herbicidal activity in a case where two active ingredients are combined, is larger than the simple sum of the respective herbicidal activities of the two active ingredients (the expected activity), it is called a synergistic effect. The activity expected by the combination of two active ingredients can be calculated as follows (Colby S. R., “Weed”, vol. 15, p. 20-22, 1967). E=α+β−(α×β÷100) where
(§2) Upland field soil was put into a 1/1,000,000 hectare pot, and seeds of various plants were sown. When the respective plants reached predetermined leaf stage, herbicidal compositions in predetermined amounts were diluted with water in an amount corresponding to 300 L/ha and applied for foliar treatment by a small sprayer.
(§3) Further, in accordance with the above Colby's formula, the growth inhibition rate (calculated value) was calculated. In Tables, with respect to the compound Q, Compound Nos. in Table 1 are described, and with respect to other herbicidal compounds, common names are described.

The test system of a further assay is prickly sida. Nature of the assay: Foliar treatment pot test (Example 1), visual growth inhibition of prickly sida. It counts as in vivo, prickly sida (Side spinosa L.). As to conditions: read-out: Growth inhibition rate (%) Measured value.
Text: as §1, §2, §3

In a further assay the test system is crabgrass. Briefly: Foliar treatment pot test (Example 1), visual growth inhibition of crabgrass. In kind it is in vivo.
Text: as §1, §2, §3

For the next assay, the system named is velvetleaf. Nature of the assay: Foliar treatment pot test (Example 1), visual growth inhibition of velvetleaf. It counts as in vivo, velvetleaf (Abutilon theophrasti MEDIC.).
Text: as §1, §2, §3

Another assay has as its system various plants. Nature of the assay: Foliar treatment pot test (Example 1) on various plants. It counts as in vivo. The conditions noted are these: Setaria, 336 h, fiant foxtail, 4.0-5.0 leaf stage, 14 days after treatment, read-out: Growth inhibition rate (%) of fiant foxtail, Measured value.
Text: as §1, §2, §3

[2] abbreviates: 504 h, 21 days after treatment, read-out: Growth inhibition rate (%) Measured value.

Broadly, the inhibition is the drop in the measured response relative to a control, in per cent.

Read-outs that look alike come from different tables or passages of the source.

As for `CCNc1nc(Cl)nc(NC(C)C)n1` [Atrazine, atrazine], the inhibition at 125 g/ha in assay [1] (setting [2]) worked out at 0%; with prickly sida (504 h, prickly sida 3.0-3.3 leaf stage, 21 days after treatment, 125 g/ha), 45%. The inhibition at 63 g/ha in the assay on prickly sida (504 h, prickly sida 3.0-3.3 leaf stage, 21 days after treatment, 63 g/ha) was found to be 30%.
For `COc1c(Cl)ccc(Cl)c1C(=O)O` [Dicamba, dicamba], the inhibition at 200 g/ha in assay [1] (336 h, 14 days after treatment, 200 g/ha, read-out: Growth inhibition rate (%) Measured value) was 0%.
For `N.O=C(O)CNCP(=O)(O)O` [Glyphosate-ammonium, glyphosate-ammonium], the “Growth inhibition rate (%) Measured value” in the assay on crabgrass (crabgrass 5.0-5.5 leaf stage, 21 days after treatment, 100 g/ha) is 10%.
Take `COC(=O)c1c(Cl)nn(C)c1S(=O)(=O)NC(=O)Nc1nc(OC)cc(OC)n1` [Halofulfuron-methyl]: in the assay on crabgrass (5.0-5.5 leaf stage, 14 days after treatment, 20 g/ha), the “Growth inhibition rate (%) of crabgrass, Measured value” turned out to be 0%.
Consider `CS(=O)(=O)c1ccc(C(=O)C2C(=O)CCCC2=O)c([N+](=O)[O-])c1` [Mesotrione], for which the inhibition at 15 g/ha in assay [1] (504 h, 21 days after treatment, 15 g/ha, read-out: Growth inhibition rate (%) of days after treatment, Measured value) came out at 5%.
On to `CCOC(=O)OC(C)Oc1c(C(=O)c2ccc(S(C)(=O)=O)c(OCCOC)c2C)cnn1C` (stereo not drawn) [NO. 2], for which the “Growth inhibition rate (%) Measured value” with velvetleaf (velvetleaf 4.0-4.3 leaf stage, 22 days after treatment, 3.75 g/ha) is reported as 0%.
With `CCn1ncc(C(=O)c2ccc(S(C)(=O)=O)c(OCCOC)c2C)c1OC(C)OC(=O)OC` (stereo not drawn) [NO. 4, 1-(1-ethyl-4-(3-(2-methoxyethoxy)-2-methyl-4-(methylsulfonyl)benzoyl)-1H-pyrazol-5-yloxy)ethyl methyl carbonate], the inhibition at […] in assay [1] (504 h, 21 days after treatment, 3.5 g/ha, read-out: Growth inhibition rate (%) of days after treatment, Measured value) was determined as 40%. The inhibition at 7 g/ha in assay [1] (504 h, 21 days after treatment, 7 g/ha, read-out: Growth inhibition rate (%) of days after treatment, Measured value) was 60%; with various plants (7 g/ha) it was 75%; with velvetleaf (Abutilon theophrasti, foliar, 552 h, 3.0-3.5 leaf stage, 23 days after treatment, 7 g/ha, read-out: Growth inhibition rate (%) of velvetleaf, Measured value) it was 75%. For the same compound, the inhibition at 75 g/ha in the assay with prickly sida (480 h, prickly sida 1.5-2.4 leaf stage, 20 days after treatment, 75 g/ha) was found to be 55%. Moreover, the inhibition at 5 g/ha came to 90% in the assay on crabgrass (Digitaria sanguinalis, foliar, 336 h, crabgrass 3.5-4.3 leaf stage, 14 days after treatment, 5 g/ha, read-out: Growth inhibition rate (%) Measured value) and 94% with velvetleaf (Abutilon theophrasti, foliar, 504 h, velvetleaf 3.1-3.4 leaf stage, 21 days after treatment, 5 g/ha, read-out: Growth inhibition rate (%) Measured value). In addition, the inhibition at 15 g/ha in the assay with crabgrass (Digitaria sanguinalis, foliar, 552 h, 4.0-5.1 leaf stage, 23 days after treatment, 15 g/ha, read-out: Growth inhibition rate (%) of crabgrass, Measured value) was 85%; with velvetleaf (Abutilon theophrasti, foliar, 336 h, 3.0-4.0 leaf stage, 14 days after treatment, 15 g/ha, read-out: Growth inhibition rate (%) of velvetleaf, Measured value), 73%; with velvetleaf (Abutilon theophrasti, foliar, 504 h, velvetleaf 3.8-4.4 leaf stage, 21 days after treatment, 15 g/ha, read-out: Growth inhibition rate (%) Measured value), 75%; in the assay on velvetleaf (Abutilon theophrasti, foliar, 528 h, velvetleaf 3.3-3.8 leaf stage, 22 days after treatment, 15 g/ha, read-out: Growth inhibition rate (%) Measured value) it was 89%; with velvetleaf (Abutilon theophrasti, foliar, 552 h, 3.0 to 3.5 leaf stage, 23 days after treatment, 15 g/ha, read-out: Growth inhibition rate (%) of velvetleaf, Measured value) it was 93%; in the assay on velvetleaf (Abutilon theophrasti, foliar, 576 h, 3.2-4.1 leaf stage, 24 days after treatment, 15 g/ha, read-out: Growth inhibition rate (%) of velvetleaf, Measured value) it was 93%. The “Growth inhibition rate (%) of velvetleaf, Measured value” in the assay on velvetleaf (3.0-4.0 leaf stage, 14 days after treatment, 15 g/ha) amounted to 80%.
As for `CCOCCN(C(=O)CCl)C(=C(C)C)c1ccccc1` [Pethoxamid, pethoxamid, reference compound], the “Growth inhibition rate (%) Measured value” was determined as 0% in the assay on crabgrass (crabgrass 4.4-5.0 leaf stage, 13 days after treatment, 200 g/ha) and 0% with velvetleaf (velvetleat 3.3-4.2 leaf stage, 13 days after treatment, 200 g/ha).
Turning to `CCCCCCCCSC(=O)Oc1cc(Cl)nnc1-c1ccccc1` [Pyridate, pyridate, reference compound], the inhibition at 100 g/ha in assay [1] (504 h, 21 days after treatment, 100 g/ha, read-out: Growth inhibition rate (%) of days after treatment, Measured value) stood at 0%; in the assay with various plants (100 g/ha), 0%.
For the compound `CCc1cccc(C)c1N(C(=O)CCl)[C@@H](C)COC` [S-Metolachlor, S-metolachlor], the “Growth inhibition rate (%) of crabgrass, Measured value” in the assay on crabgrass (4.0-5.0 leaf stage, 14 days after treatment, 150 g/ha) was 0%. For the same compound, the “Growth inhibition rate (%) Measured value” in the assay on crabgrass (crabgrass 4.0-5.1 leaf stage, 21 days after treatment, 300 g/ha) came to 0%; in the assay with crabgrass (crabgrass 5.0-6.0 leaf stage, 14 days after treatment, 800 g/ha) it was 0%; with velvetleaf (velvetleaf 3.0-3.5 leaf stage, 21 days after treatment, 300 g/ha), 0%.
Turning to `CCNc1nc(Cl)nc(NC(C)(C)C)n1` [Terbuthylazine, terbuthylazine], the inhibition at 250 g/ha in assay [1] (192 h, 8 days after treatment, 250 g/ha, read-out: Growth inhibition rate (%) Measured value) was 10%. For the same compound, the inhibition at 125 g/ha in assay [1] (setting [2]) stood at 0%.
`COC(=O)c1sccc1S(=O)(=O)NC(=O)Nc1nc(C)nc(OC)n1` [Thifensulfuron-methyl]: the inhibition at 5 g/ha in assay [1] (504 h, 21 days after treatment, 5 g/ha, read-out: Growth inhibition rate (%) of days after treatment, Measured value) was found to be 0%.
